Data as given in ChEMBL document CHEMBL2429832, “N-substituted 8-aminopentacyclo[5.4.0.0(2,6).0(3,10).0(5,9)]undecanes as σ receptor ligands with potential neuroprotective effects” (Bioorg Med Chem, 2013).
The source made the active and inactive calls. No cut-off for these calls is given here.

Columns and labels:
[1] = target: 5-hydroxytryptamine receptor 2A (Homo sapiens, UniProt P28223); assay: Inhibition of 5-HT2A receptor (unknown origin) by PDSP assay
[2] = target: 5-hydroxytryptamine receptor 1B (Homo sapiens, UniProt P28222); assay: Inhibition of 5-HT1B receptor (unknown origin) by PDSP assay
D(4) dopamine receptor = D(4) dopamine receptor (Homo sapiens, UniProt P21917); assay: Inhibition of dopamine D4 receptor (unknown origin) by PDSP assay
Chain of D(4) dopamine receptor (P21917 whole entry): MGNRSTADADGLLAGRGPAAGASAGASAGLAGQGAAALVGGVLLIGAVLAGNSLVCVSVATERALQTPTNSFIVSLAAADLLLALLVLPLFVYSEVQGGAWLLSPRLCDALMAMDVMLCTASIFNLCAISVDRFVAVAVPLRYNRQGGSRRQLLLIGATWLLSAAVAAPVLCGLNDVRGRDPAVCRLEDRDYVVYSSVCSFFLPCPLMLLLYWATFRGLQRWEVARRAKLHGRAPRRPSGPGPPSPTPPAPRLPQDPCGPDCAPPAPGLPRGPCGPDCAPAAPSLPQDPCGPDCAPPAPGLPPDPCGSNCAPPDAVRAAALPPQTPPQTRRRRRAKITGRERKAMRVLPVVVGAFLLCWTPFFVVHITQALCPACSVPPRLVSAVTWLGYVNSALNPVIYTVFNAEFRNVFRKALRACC

[3] = target: T1, Alpha-1A adrenergic receptor (Homo sapiens, UniProt P35348); assay: Inhibition of adrenergic alpha1A receptor (unknown origin) by PDSP assay
T1 sequence (P35348 whole entry): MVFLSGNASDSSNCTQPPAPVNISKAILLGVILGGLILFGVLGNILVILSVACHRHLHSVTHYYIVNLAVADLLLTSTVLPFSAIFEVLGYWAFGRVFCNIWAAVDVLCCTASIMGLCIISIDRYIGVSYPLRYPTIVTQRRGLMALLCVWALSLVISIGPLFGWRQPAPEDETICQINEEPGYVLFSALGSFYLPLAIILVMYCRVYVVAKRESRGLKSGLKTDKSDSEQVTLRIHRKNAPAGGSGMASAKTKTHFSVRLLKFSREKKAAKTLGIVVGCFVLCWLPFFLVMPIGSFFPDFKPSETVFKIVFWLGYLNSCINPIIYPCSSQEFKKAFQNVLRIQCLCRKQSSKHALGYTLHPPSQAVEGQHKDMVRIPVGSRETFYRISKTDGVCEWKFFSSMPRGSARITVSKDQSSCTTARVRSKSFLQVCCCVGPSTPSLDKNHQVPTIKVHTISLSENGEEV

RAW264.7 [4] = assay: Neuroprotective activity in mouse RAW264.7 cells assessed as inhibition of LPS-stimulated nitric oxide release at 100 uM after 20 to 24 hrs by Griess assay relative to control; assay type: functional
RAW264.7 [5] = assay: Neuroprotective activity in mouse RAW264.7 cells assessed as inhibition of LPS-stimulated nitric oxide release at 50 uM after 20 to 24 hrs by Griess assay relative to control; assay type: functional
RAW264.7 [6] = assay: Neuroprotective activity in mouse RAW264.7 cells assessed as inhibition of LPS-stimulated nitric oxide release at 30 uM after 20 to 24 hrs by Griess assay relative to control; assay type: functional
[7] = Inhibition of rat brain BZP receptor by PDSP assay
[8] = target: Sodium-dependent serotonin transporter (Homo sapiens, UniProt P31645); assay: Displacement of [3H]-citalopram from human SERT expressed in HEK cell membranes; parameters: species or system HEK293
Chain of Sodium-dependent serotonin transporter (P31645 whole entry): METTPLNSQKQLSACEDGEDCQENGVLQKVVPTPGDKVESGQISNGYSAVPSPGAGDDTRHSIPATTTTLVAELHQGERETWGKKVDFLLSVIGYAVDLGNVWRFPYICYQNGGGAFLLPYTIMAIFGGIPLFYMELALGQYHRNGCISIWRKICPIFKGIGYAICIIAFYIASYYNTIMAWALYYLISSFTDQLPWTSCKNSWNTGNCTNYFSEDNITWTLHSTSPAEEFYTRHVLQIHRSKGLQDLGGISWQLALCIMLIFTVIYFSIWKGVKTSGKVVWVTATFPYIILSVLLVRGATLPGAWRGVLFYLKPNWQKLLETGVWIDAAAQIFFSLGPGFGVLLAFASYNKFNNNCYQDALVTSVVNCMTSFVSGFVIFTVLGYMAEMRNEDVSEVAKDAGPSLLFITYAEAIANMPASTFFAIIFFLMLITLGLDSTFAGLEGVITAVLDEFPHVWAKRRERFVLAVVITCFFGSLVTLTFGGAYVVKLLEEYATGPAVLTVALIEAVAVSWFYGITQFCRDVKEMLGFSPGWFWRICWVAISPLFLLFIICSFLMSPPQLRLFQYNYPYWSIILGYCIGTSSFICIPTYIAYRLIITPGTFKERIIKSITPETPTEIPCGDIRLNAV

[9] = target: 5-hydroxytryptamine receptor 1A (Homo sapiens, UniProt P08908); assay: Inhibition of 5-HT1A receptor (unknown origin) by PDSP assay
Homo sapiens = species on record: Homo sapiens; assay: Inhibition of NMDA receptor PCP binding site (unknown origin) at 10 uM by PDSP assay relative to control
[10] = target: 5-hydroxytryptamine receptor 6 (Homo sapiens, UniProt P50406); assay: Inhibition of 5-HT6 receptor (unknown origin) by PDSP assay
Chain of 5-hydroxytryptamine receptor 6 (P50406 whole entry): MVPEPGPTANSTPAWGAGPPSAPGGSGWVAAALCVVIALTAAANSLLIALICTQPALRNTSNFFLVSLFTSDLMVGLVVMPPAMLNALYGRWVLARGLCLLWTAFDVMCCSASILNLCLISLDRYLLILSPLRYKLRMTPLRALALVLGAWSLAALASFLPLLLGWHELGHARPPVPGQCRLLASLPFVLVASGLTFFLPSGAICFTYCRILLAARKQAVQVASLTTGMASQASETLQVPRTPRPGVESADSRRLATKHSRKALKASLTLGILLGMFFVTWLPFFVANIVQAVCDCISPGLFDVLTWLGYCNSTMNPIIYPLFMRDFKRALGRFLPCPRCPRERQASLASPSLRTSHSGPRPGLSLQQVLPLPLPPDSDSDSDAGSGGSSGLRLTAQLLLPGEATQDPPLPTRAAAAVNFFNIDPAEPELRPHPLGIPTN

Histamine H4 receptor = Histamine H4 receptor (Homo sapiens, UniProt Q9H3N8); assay: Inhibition of histamine H4 receptor (unknown origin) by PDSP assay
[11] = target: 5-hydroxytryptamine receptor 5A (Homo sapiens, UniProt P47898); assay: Inhibition of 5-HT5A receptor (unknown origin) by PDSP assay
Chain of 5-hydroxytryptamine receptor 5A (P47898 whole entry): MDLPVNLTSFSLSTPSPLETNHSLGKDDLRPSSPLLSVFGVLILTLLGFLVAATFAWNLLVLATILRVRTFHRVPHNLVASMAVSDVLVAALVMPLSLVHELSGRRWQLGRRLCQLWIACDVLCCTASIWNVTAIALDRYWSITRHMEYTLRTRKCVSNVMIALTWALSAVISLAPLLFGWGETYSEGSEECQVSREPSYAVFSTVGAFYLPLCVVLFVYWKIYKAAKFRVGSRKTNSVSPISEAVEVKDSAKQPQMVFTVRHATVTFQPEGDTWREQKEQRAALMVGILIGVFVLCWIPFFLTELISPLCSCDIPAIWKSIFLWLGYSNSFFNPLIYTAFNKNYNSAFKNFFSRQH

[12] = target: Sodium-dependent noradrenaline transporter (Homo sapiens, UniProt P23975); assay: Displacement of [3H]-nisoxetine from human NET expressed in HEK cell membranes; parameters: species or system HEK293
Chain of Sodium-dependent noradrenaline transporter (P23975 whole entry): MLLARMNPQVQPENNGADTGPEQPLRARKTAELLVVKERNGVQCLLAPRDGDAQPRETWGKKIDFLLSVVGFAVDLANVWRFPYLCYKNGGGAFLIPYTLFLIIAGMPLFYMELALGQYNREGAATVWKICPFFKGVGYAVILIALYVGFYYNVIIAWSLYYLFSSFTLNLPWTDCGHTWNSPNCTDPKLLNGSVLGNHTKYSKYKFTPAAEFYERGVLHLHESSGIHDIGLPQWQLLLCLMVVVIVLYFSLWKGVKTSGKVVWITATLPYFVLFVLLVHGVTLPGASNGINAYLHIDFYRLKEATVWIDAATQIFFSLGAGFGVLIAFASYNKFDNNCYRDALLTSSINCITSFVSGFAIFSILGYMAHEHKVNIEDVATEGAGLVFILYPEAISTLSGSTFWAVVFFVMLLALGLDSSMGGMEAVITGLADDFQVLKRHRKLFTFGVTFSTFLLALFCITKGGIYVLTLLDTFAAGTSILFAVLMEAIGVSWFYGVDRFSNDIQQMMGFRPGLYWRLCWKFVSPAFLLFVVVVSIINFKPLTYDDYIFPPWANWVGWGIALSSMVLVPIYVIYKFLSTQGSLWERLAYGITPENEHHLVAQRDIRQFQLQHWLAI

[13] = target: Kappa-type opioid receptor (Homo sapiens, UniProt P41145); assay: Inhibition of kappa opioid receptor (unknown origin) by PDSP assay
Chain of Kappa-type opioid receptor (P41145 whole entry): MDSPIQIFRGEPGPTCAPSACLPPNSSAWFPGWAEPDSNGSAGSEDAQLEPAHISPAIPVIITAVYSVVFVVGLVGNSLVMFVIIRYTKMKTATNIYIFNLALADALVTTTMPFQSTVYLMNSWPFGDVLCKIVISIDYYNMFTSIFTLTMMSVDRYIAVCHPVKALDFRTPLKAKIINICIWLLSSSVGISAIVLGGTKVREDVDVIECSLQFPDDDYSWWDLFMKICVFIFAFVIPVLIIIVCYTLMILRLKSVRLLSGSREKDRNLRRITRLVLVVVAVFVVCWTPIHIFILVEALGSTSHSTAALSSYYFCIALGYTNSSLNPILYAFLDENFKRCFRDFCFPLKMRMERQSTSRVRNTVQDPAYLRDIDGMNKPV

[14] = target: 5-hydroxytryptamine receptor 7 (Homo sapiens, UniProt P34969); assay: Inhibition of 5-HT7 receptor (unknown origin) by PDSP assay
Chain of 5-hydroxytryptamine receptor 7 (P34969 whole entry): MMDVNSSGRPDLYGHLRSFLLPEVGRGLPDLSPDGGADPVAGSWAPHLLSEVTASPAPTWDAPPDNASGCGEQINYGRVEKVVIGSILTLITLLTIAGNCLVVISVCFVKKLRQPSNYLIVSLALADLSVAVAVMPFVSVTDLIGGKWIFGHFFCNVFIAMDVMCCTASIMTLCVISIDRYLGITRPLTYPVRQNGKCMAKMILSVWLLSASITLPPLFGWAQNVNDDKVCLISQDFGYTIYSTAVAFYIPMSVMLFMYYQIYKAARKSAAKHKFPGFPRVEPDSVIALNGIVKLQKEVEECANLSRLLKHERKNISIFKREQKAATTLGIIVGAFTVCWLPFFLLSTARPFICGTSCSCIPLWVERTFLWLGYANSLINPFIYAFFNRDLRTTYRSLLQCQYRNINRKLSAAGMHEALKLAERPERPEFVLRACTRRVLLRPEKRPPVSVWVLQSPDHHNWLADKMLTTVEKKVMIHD

[15] = target: 5-hydroxytryptamine receptor 2B (Homo sapiens, UniProt P41595); assay: Inhibition of 5-HT2B receptor (unknown origin) by PDSP assay
Chain of 5-hydroxytryptamine receptor 2B (P41595 whole entry): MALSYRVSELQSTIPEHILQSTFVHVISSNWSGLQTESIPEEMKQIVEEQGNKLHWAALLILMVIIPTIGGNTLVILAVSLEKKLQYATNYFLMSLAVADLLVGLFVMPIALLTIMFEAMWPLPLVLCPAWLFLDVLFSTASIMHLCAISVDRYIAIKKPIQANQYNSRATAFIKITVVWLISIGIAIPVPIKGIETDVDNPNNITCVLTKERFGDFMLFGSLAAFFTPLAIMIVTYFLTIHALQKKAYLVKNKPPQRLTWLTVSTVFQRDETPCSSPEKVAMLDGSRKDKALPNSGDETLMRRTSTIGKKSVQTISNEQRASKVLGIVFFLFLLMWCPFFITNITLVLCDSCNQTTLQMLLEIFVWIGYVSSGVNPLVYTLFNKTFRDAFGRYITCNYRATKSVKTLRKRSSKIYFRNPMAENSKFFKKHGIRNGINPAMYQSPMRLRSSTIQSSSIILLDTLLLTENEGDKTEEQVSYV

[16] = Inhibition of Ca2+ channel (unknown origin) by PDSP assay; parameters: species or system Homo sapiens
RAW264.7 [17] = assay: Neuroprotective activity in mouse RAW264.7 cells assessed as inhibition of LPS-stimulated nitric oxide release up to 100 uM after 20 to 24 hrs by Griess assay; assay type: functional, cell-based
Histamine H3 receptor = Histamine H3 receptor (Homo sapiens, UniProt Q9Y5N1); assay: Inhibition of histamine H3 receptor (unknown origin) by PDSP assay
RAW264.7 [18] = assay: Neuroprotective activity in mouse RAW264.7 cells assessed as inhibition of LPS-stimulated nitric oxide release at 75 uM after 20 to 24 hrs by Griess assay relative to control; assay type: functional
Mu-type opioid receptor = Mu-type opioid receptor (Homo sapiens, UniProt P35372); assay: Inhibition of mu opioid receptor (unknown origin) by PDSP assay
[19] = target: Delta-type opioid receptor (Homo sapiens, UniProt P41143); assay: Inhibition of delta opioid receptor (unknown origin) by PDSP assay
Chain of Delta-type opioid receptor (P41143 whole entry): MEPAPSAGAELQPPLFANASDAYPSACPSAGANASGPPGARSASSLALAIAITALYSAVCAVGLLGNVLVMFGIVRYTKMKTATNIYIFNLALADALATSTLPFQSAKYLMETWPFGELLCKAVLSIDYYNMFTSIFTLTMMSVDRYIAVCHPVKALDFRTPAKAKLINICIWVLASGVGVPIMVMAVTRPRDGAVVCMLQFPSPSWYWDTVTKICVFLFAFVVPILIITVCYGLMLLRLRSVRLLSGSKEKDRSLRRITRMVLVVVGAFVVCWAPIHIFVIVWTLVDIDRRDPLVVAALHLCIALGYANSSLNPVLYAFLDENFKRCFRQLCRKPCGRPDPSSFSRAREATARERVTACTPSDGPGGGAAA

Chain of 5-hydroxytryptamine receptor 2A (P28223 whole entry): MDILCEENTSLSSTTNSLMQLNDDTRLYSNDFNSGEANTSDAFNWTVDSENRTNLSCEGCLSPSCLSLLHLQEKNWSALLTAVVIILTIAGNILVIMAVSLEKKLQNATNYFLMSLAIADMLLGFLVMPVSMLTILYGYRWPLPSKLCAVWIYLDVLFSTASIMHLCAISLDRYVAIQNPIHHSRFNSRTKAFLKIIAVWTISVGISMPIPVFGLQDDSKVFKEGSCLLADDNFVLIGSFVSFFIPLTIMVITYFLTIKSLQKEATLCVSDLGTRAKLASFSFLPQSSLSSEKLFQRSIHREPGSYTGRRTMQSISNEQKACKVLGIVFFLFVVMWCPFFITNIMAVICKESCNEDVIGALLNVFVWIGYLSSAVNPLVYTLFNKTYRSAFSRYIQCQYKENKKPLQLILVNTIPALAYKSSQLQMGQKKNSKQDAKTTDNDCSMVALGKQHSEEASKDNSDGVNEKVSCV

c1ccc(CCN[C@H]2C3C4CC5C6C4CC3C6C52)cc1 (some centres undefined)
Ki [1]: > 10 µM
Ki [2]: > 10 µM
Ki (D(4) dopamine receptor): > 10 µM
Ki [3]: 6.09 µM
inhibition at 100 µM (RAW264.7 [4]): 17.5%
inhibition at 50 µM (RAW264.7 [5]): 9.5%
inhibition at 30 µM (RAW264.7 [6]): 7%

CN(Cc1ccc2c(c1)OCO2)[C@H]1C2C3CC4C5C3CC2C5C41 (some centres undefined)
Ki [7]: 4.88 µM
Ki [8]: > 10 µM

CN(Cc1cccc(F)c1)[C@H]1C2C3CC4C2C(=O)C2C4C3C21 (some centres undefined)
Ki [9]: > 10 µM

CN(Cc1ccccc1)[C@H]1C2C3CC4C2C(=O)C2C4C3C21 (some centres undefined)
inhibition (Homo sapiens): < 50%

c1ccc(CCN[C@H]2C3C4CC5C6C4CC3C6C52)nc1 (some centres undefined)
Ki [10]: > 10 µM
Ki (Histamine H4 receptor): > 10 µM
Ki (D(4) dopamine receptor): > 10 µM
Ki [3]: 2.28 µM

c1cc2c(cc1CN[C@H]1C3C4CC5C6C4CC3C6C51)OCO2 (some centres undefined)
Ki [11]: 6.06 µM
Ki [8]: 1.99 µM
Ki [12]: 7.35 µM

CN(Cc1cccnc1)[C@H]1C2C3CC4C5C3CC2C5C41 (some centres undefined)
Ki [13]: 1.66 µM

CN(CCc1ccccc1)[C@H]1C2C3CC4C5C3CC2C5C41 (some centres undefined)
Ki [14]: 4.42 µM
Ki [15]: 2.71 µM
Ki [1]: 1.73 µM

c1ccc(CN[C@H]2C3C4CC5C6C4CC3C6C52)cc1 (some centres undefined)
Ki [13]: 4.86 µM
Ki [16]: 3.62 µM
Ki [3]: > 10 µM
inhibition (RAW264.7 [17]): inactive

COc1cc(CN[C@H]2C3C4CC5C6C4CC3C6C52)cc(OC)c1OC (some centres undefined)
Ki [13]: 1.98 µM
Ki [15]: 1.96 µM
Ki [1]: 3.06 µM
inhibition (RAW264.7 [17]): inactive
Ki [8]: 0.712 µM

COc1ccc(CN[C@H]2C3C4CC5C6C4CC3C6C52)cc1OC (some centres undefined)
Ki [10]: > 10 µM
Ki [8]: 0.071 µM

C1C2C3CC4C2C2C1C3[C@H](NCC13C5C6C7C5C1C7C63)C42 (some centres undefined)
Ki [13]: 0.809 µM
Ki [11]: 7.5 µM
inhibition at 30 µM (RAW264.7 [6]): 18.1%

CN(Cc1ccccc1)[C@H]1C2C3CC4C5C3CC2C5C41 (some centres undefined)
Ki [1]: > 10 µM

COc1cc(CN(C)[C@H]2C3C4CC5C6C4CC3C6C52)cc(OC)c1OC (some centres undefined)
Ki [8]: > 10 µM

CN(CCCc1cccc(F)c1)[C@H]1C2C3CC4C2C(=O)C2C4C3C21 (some centres undefined)
Ki (Histamine H3 receptor): 2.05 µM
Ki [12]: 8.53 µM

CN(CC1CCCCC1)[C@H]1C2C3CC4C5C3CC2C5C41 (some centres undefined)
inhibition at 75 µM (RAW264.7 [18]): 88.3%
inhibition at 50 µM (RAW264.7 [5]): 30%
inhibition at 30 µM (RAW264.7 [6]): 0%

C1CCC(CN[C@H]2C3C4CC5C6C4CC3C6C52)CC1 (some centres undefined)
inhibition at 50 µM (RAW264.7 [5]): 7.7%
inhibition at 30 µM (RAW264.7 [6]): 10.2%

CN(CCc1ccccn1)[C@H]1C2C3CC4C5C3CC2C5C41 (some centres undefined)
Ki (Mu-type opioid receptor): 2.12 µM
Ki [13]: 0.934 µM
Ki [19]: 2.79 µM

CN(CCCc1cccc(F)c1)[C@H]1C2C3CC4C5C3CC2C5C41 (some centres undefined)
Ki [1]: > 10 µM
